Experimental data from US20090075916A1, “Use of Macrolide Derivatives for Treating Acne” (priority 2005, published 2009).
Converted amounts (≈) assume the structure as drawn.

Key:
Test in all cases: MIC, agar dilution (NCCLS M11-A5), anaerobic
[1] = tested on: sensitive P. acnes isolates (Propionibacterium acnes 6523, ATCC 6919, clinical isolate, I and II); type: cell-based; conditions: Cutibacterium acnes, sensitive P. acnes isolates: 6523, ATCC 6919, clinical isolate, 48 hours anaerobic
[2] = tested on: resistant P. acnes (NDDR I and II) isolates; type: cell-based, Propionibacterium acnes; conditions: Cutibacterium acnes
[3] = tested on: All the P. acnes isolate; type: cell-based, Propionibacterium acnes

Row | SMILES | MIC [1] [µg/mL] | MIC [2] [µg/mL] | susceptibility of P. acnes isolates (in words) [3]
1 | CC[C@H]1OC(=O)[C@H](C)[C@@H](O[C@H]2C[C@@](C)(OC)[C@@H](O)[C@H](C)O2)[C@H](C)[C@@H](O[C@@H]2O[C@H](C)C[C@H](N(C)C)[C@H]2O)[C@](C)(O)C[C@@H](C)CN(C)[C@H](C)[C@@H](O)[C@]1(C)O [Azithromycin] | 0.06 to 0.5 (≈ 0.0801 to 0.668 µM) | > 16 | 
2 | CC[C@H]1OC(=O)[C@H](C)[C@@H](O[C@H]2C[C@@](C)(OC)[C@@H](O)[C@H](C)O2)[C@H](C)[C@@H](O[C@@H]2O[C@H](C)C[C@H](N(C)C)[C@H]2O)[C@](C)(OC)C[C@@H](C)C(=O)[C@H](C)[C@@H](O)[C@]1(C)O [Clarithromycin] | 0.06 to 0.5 (≈ 0.0802 to 0.668 µM) | > 16 | 
3 | CCC[C@@H]1C[C@@H](C(=O)N[C@@H]([C@H]2O[C@H](SC)[C@H](O)[C@@H](O)[C@H]2O)[C@H](C)Cl)N(C)C1 [Clindamycin] | 0.25 (≈ 0.588 µM) | 16 (≈ 37.6 µM) | 
4 | CC[C@H]1OC(=O)[C@H](C)[C@@H](O[C@H]2C[C@@](C)(OC)[C@@H](O)[C@H](C)O2)[C@H](C)[C@@H](O[C@@H]2O[C@H](C)C[C@H](N(C)C)[C@H]2O)[C@](C)(O)C[C@@H](C)C(=O)[C@H](C)[C@@H](O)[C@]1(C)O [Erythromycin] | 0.06 to 0.5 (≈ 0.0818 to 0.681 µM) | > 16 | 
5 | CC[C@H]1OC(=O)[C@H](C)C(=O)[C@H](C)[C@@H](O[C@@H]2O[C@H](C)C[C@H](N(C)C)[C@H]2O)[C@](C)(OC)C[C@@H](C)C(=O)[C@H](C)[C@H]2N(CCCCn3cnc(-c4cccnc4)c3)C(=O)O[C@]12C [Telithromycin] |  | 2 (≈ 2.46 µM) | 
6 | Cc1ncc([N+](=O)[O-])n1CCO [metronidazole] |  |  | resistance
